Tested on: 695427-040-R-J1-PDC complex spheroid viability
Assay: Anticancer human tumor 695427-040-R-J1-PDC patient-derived colon adenocarcinoma cell line growth inhibition [RAS]
Conditions: for IC50: curve of first compound; for viability, T/C: stronger effect = lower value
Summary of the method: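 Multi-cell-type spheroids: tumor cells plus HUVEC endothelial cells and mesenchymal stem cells. RAS-pathway inhibitors were combined with targeted agents, each dosed in half-log steps down from clinical Cmax, or from 10 microM when Cmax was unknown.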

[1] = second compound 0.000949 µM, first compound 0.0316 µM
[2] = second compound 0.000949 µM, first compound 0.1 µM
[3] = second compound 0.000949 µM, first compound 0.316 µM
[4] = second compound 0.000949 µM, first compound 1 µM
[5] = second compound 0.000949 µM, first compound 3.16 µM
[6] = second compound 0.000949 µM, first compound 10 µM
[7] = second compound 0.003 µM, first compound 0.0316 µM
[8] = second compound 0.003 µM, first compound 0.1 µM
[9] = second compound 0.003 µM, first compound 0.316 µM
[10] = second compound 0.003 µM, first compound 1 µM
[11] = second compound 0.003 µM, first compound 3.16 µM
[12] = second compound 0.003 µM, first compound 10 µM
[13] = second compound 0.00949 µM, first compound 0.0316 µM
[14] = second compound 0.00949 µM, first compound 0.1 µM
[15] = second compound 0.00949 µM, first compound 0.316 µM
[16] = second compound 0.00949 µM, first compound 1 µM
[17] = second compound 0.00949 µM, first compound 3.16 µM
[18] = second compound 0.00949 µM, first compound 10 µM
[19] = second compound 0.03 µM, first compound 0.0316 µM
[20] = second compound 0.03 µM, first compound 0.1 µM
[21] = second compound 0.03 µM, first compound 0.316 µM
[22] = second compound 0.03 µM, first compound 1 µM
[23] = second compound 0.03 µM, first compound 3.16 µM
[24] = second compound 0.03 µM, first compound 10 µM
[25] = second compound 0.0949 µM, first compound 0.0316 µM
[26] = second compound 0.0949 µM, first compound 0.1 µM
[27] = second compound 0.0949 µM, first compound 0.316 µM
[28] = second compound 0.0949 µM, first compound 1 µM
[29] = second compound 0.0949 µM, first compound 3.16 µM
[30] = second compound 0.0949 µM, first compound 10 µM
[31] = second compound 0.3 µM, first compound 0.0316 µM
[32] = second compound 0.3 µM, first compound 0.1 µM
[33] = second compound 0.3 µM, first compound 0.316 µM
[34] = second compound 0.3 µM, first compound 1 µM
[35] = second compound 0.3 µM, first compound 3.16 µM
[36] = second compound 0.3 µM, first compound 10 µM
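Also: viability read after seven days of drug exposure.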
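For viability, T/C in this document: 100% = DMSO vehicle control viability.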

Q: Which results are given for CC1(O)CCCC1n1c(=O)c(C(F)F)cc2cnc(NC3CCN(S(C)(=O)=O)CC3)nc21 (centres undefined) + CCn1c(-c2cc(N3CCN(C)CC3)cnc2C(C)OC)c2c3cc(ccc31)-c1csc(n1)CC(NC(=O)C1CC1C)C(=O)N1CCCC(N1)C(=O)OCC(C)(C)C2?
A: IC50 (second compound 0.000949 µM): > 10000 nM; IC50 (second compound 0.003 µM): > 10000 nM; IC50 (second compound 0.00949 µM): > 10000 nM; IC50 (second compound 0.03 µM): 4610 nM; IC50 (second compound 0.0949 µM): < 31.6 nM; IC50 (second compound 0.3 µM): < 31.6 nM; viability, T/C [1]: 112%; viability, T/C [2]: 74.6%; viability, T/C [3]: 93.8%; viability, T/C [4]: 105%; viability, T/C [5]: 114%; viability, T/C [6]: 74.5%; viability, T/C [7]: 87.3%; viability, T/C [8]: 92.8%; viability, T/C [9]: 91.8%; viability, T/C [10]: 92.7%; viability, T/C [11]: 109%; viability, T/C [12]: 71%; viability, T/C [13]: 95.7%; viability, T/C [14]: 80.8%; viability, T/C [15]: 85.2%; viability, T/C [16]: 78.3%; viability, T/C [17]: 81.8%; viability, T/C [18]: 52%; viability, T/C [19]: 62.4%; viability, T/C [20]: 71.5%; viability, T/C [21]: 59.1%; viability, T/C [22]: 57.1%; viability, T/C [23]: 59.8%; viability, T/C [24]: 32.7%; viability, T/C [25]: 44.2%; viability, T/C [26]: 42.1%; viability, T/C [27]: 50.3%; viability, T/C [28]: 50.8%; viability, T/C [29]: 50.9%; viability, T/C [30]: 25.6%; viability, T/C [31]: 40.5%; viability, T/C [32]: 42%; viability, T/C [33]: 41.2%; viability, T/C [34]: 36.5%; viability, T/C [35]: 44.2%; viability, T/C [36]: 25.2%

Q: What does the source list for CCC(CC)c1cc(NC2CCC(N)C2)n2nccc2n1 (centres undefined) + CCn1c(-c2cc(N3CCN(C)CC3)cnc2C(C)OC)c2c3cc(ccc31)-c1csc(n1)CC(NC(=O)C1CC1C)C(=O)N1CCCC(N1)C(=O)OCC(C)(C)C2?
A: IC50 (second compound 0.000949 µM): 1750 nM; IC50 (second compound 0.003 µM): 1400 nM; IC50 (second compound 0.00949 µM): 732 nM; IC50 (second compound 0.03 µM): 1210 nM; IC50 (second compound 0.0949 µM): < 31.6 nM; IC50 (second compound 0.3 µM): < 31.6 nM; viability, T/C [1]: 104%; viability, T/C [2]: 84.6%; viability, T/C [3]: 83.7%; viability, T/C [4]: 84.6%; viability, T/C [5]: 13.7%; viability, T/C [6]: 12.3%; viability, T/C [7]: 92.8%; viability, T/C [8]: 99.8%; viability, T/C [9]: 85.1%; viability, T/C [10]: 66.4%; viability, T/C [11]: 9.9%; viability, T/C [12]: 10.9%; viability, T/C [13]: 90.3%; viability, T/C [14]: 72.1%; viability, T/C [15]: 69.9%; viability, T/C [16]: 45.8%; viability, T/C [17]: 10.7%; viability, T/C [18]: 12.9%; viability, T/C [19]: 51%; viability, T/C [20]: 56.1%; viability, T/C [21]: 64.8%; viability, T/C [22]: 58.7%; viability, T/C [23]: 7.23%; viability, T/C [24]: 15.1%; viability, T/C [25]: 44.6%; viability, T/C [26]: 47.3%; viability, T/C [27]: 43.9%; viability, T/C [28]: 41.6%; viability, T/C [29]: 11%; viability, T/C [30]: 15.3%; viability, T/C [31]: 29.7%; viability, T/C [32]: 39.4%; viability, T/C [33]: 45.8%; viability, T/C [34]: 27.8%; viability, T/C [35]: 6.23%; viability, T/C [36]: 15.5%
